Measured values as given in patent US9995679B2, “Targeted probes of cellular physiology” (Carnegie Mellon University, priority 2010, dated 2018).
Entries after “also recorded” stand apart in the source; their conditions may differ.

Tests used:
[1] = test system: selected modules (FAP) that activate malachite green; assay: Fluorogen activation by selected FAP modules (switching ratio); format: biochemical; details: in buffer
Text: Malachite green can serve as an acceptor, as we already have selected modules that activate it with switching ratios of >15,000 fold in buffer. Additional fluorogens may be designed and synthesized. Unsymmetric polymethine dyes, and analogs of indocyanine green may be used as fluorogens, as can many of the polarity sensing dyes (e.g. merocyanine and styryl dyes) with far-red and near IR emission. Fluorogens are screened for nonspecific activation in cell lysate before incorporation into the biosensor composition. Quenching and activation by selected FAP modules are characterized in buffer and cell lysate to determine the activation ratio. FAP/biosensor pairs with acceptable switching ratios are characterized by FCS and TIRF-single molecule microscopy.

[2] = Calcium titration curve of MG-PEG7-Rhod2 sodium salt with dL5, fluorescence by plate reader; format: binding; details: with dL5 (tandem dimer of L5-MG E52D L91S); free Ca 0-39 μM calibration buffers; FIG. 15
Procedure: A calcium titration curve for MG-PEG7-Rhod2 sodium salt (compound 18 of Example 8, was measured.
Compound 18 and 2 μL of dL5 (A tandem dimer of L5-MG E52D L91S (FIG. 1A) separated by a G4S linker) is dissolved in each 600 μL of 0 calcium solution^1 (solution A, Invitrogen™ Cat. no. C-3008MP Calcium Calibration Buffer Kit #1) and 600 μL 39 calcium solution (solution B, Invitrogen™ Cat. no. C-3008MP Calcium Calibration Buffer Kit #1). Each volume of A and B solutions was added into 96 well black plate as described in Table 1.
And then, each solution was measured fluorescence by plate reader (TECAN safire2).

[3] = test system: malachite green binding FAP clone; assay: Fluorescence correlation spectroscopy (FCS) of dye with MG-binding FAP; details: 500-fold molar excess of protein, FIG. 6
Text: To assess the feasibility of this approach, two key criteria have been met. First, the spectral properties of Rhod-2 are almost identical to the CY3 that has already been used as a successful donor molecule. Second, the rhodamine moiety, which is structurally similar to malachite green, has been shown not to bind or block binding of the MG-binding FAP module. […] These findings support the design of this probe.

Compound: CN(C)c1ccc(C(=C2C=CC(=[N+](C)C)C=C2)c2ccccc2)cc1 [Malachite green]
- switching ratio (fluorescence activation by FAP) [1]: > 15,000 fold

Compound: MG-PEG7-Rhod2 Sodium Salt [Compound 18]
- mid-point for calcium binding (ratio of rhod2 excitation peak to MG excitation peak at ~640 nm vs free calcium) [2]: 0.5 micro molar

Compound: CCN(CC)c1ccc2c(-c3ccccc3C(=O)O)c3ccc(=[N+](CC)CC)cc-3oc2c1.[Cl-] [rhodamine B]
- binding to / inhibition of MG binding of the malachite green binding FAP [3]: does not associate with the malachite green binding clone; also recorded: neither binds to nor inhibits normal binding
